Results on five compounds are retold here after ChEMBL document CHEMBL1138501, “Structure-guided design, synthesis, and evaluation of salicylic acid-based inhibitors targeting a selectivity pocket in the active site of human 20alpha-hydroxysteroid dehydrogenase (AKR1C1)” (J Med Chem, 2009).

Data set [1] is described as follows: Cytotoxicity against BAEC assessed as cell viability at 10 uM. Type of data set: cell-based, Bos taurus. Particulars: cattle; call rule not given here.
Data set [2] has as its target T1, Aldo-keto reductase family 1 member C3 (Homo sapiens, UniProt P42330).
T1 sequence (P42330 whole entry): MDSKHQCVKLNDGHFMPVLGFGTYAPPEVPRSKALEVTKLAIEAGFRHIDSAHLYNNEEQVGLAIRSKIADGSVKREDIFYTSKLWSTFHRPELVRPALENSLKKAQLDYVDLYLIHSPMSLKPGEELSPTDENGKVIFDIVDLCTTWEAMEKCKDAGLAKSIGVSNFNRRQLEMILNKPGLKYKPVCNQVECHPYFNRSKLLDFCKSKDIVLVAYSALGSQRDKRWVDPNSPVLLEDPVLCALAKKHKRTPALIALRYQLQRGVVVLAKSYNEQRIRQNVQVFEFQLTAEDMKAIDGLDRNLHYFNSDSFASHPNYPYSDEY
As to the kind of experiment: Inhibition of human recombinant type 2 3-alpha-HSD expressed in Escherichia coli JM109.

Data set [3] deals with T2, Aldo-keto reductase family 1 member C4 (Homo sapiens, UniProt P17516).
T2 sequence (P17516 whole entry): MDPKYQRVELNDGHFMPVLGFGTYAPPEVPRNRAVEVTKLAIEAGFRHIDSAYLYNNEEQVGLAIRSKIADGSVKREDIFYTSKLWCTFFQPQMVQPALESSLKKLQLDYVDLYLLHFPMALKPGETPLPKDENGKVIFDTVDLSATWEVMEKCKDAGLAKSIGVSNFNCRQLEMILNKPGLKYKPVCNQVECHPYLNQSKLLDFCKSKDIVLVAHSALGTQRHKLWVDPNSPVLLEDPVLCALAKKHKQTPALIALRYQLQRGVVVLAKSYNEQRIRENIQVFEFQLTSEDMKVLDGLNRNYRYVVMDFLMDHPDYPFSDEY
As to the kind of experiment: Inhibition of human recombinant type 1 3-alpha-HSD expressed in Escherichia coli JM109.

In data set [4] the target is T3, Aldo-keto reductase family 1 member C1 (Homo sapiens, UniProt Q04828).
T3 sequence (Q04828 whole entry): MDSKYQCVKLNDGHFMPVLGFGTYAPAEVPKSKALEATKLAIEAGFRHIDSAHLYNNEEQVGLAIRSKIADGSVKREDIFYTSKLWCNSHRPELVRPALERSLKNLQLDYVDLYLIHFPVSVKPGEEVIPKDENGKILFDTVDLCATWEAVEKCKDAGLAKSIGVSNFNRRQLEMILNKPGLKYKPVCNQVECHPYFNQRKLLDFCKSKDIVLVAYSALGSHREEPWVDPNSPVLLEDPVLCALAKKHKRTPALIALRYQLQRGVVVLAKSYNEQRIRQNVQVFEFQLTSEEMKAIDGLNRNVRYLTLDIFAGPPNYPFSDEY
Description: Inhibition of human recombinant 20-alpha HSD expressed in Escherichia coli JM109

The target in data set [5] is T4, Aldo-keto reductase family 1 member C1 (Homo sapiens) (UniProt Q04828).
T4 sequence (whole entry): T3 sequence (Q04828 whole entry)
As to conditions: 10 uM.

Data set [6] addresses T3, Aldo-keto reductase family 1 member C1. As to the kind of experiment: Inhibition of 20-alpha HSD.

What is called Ki is the dissociation constant of the complex between target and ligand, obtained from inhibition or displacement. In general, inhibition refers to the percentage by which the read-out fell short of the control. Low readings indicate a weak effect, high ones a strong effect. As usually defined, the IC50 is the concentration that inhibits the measured activity by half.

Consider `O=C(O)c1cc(Br)cc(-c2ccccc2)c1O`, for which the Activity result in data set [1] is “Non-toxic”. The Ki is 21 µM in data set [2], “Not Active” in data set [3] and 0.14 µM in data set [4]. This compound yielded an inhibition in data set [5] of 40%.

In the case of `O=C(O)c1cc(-c2ccccc2)cc(Br)c1O`, in data set [1], the Activity result was “Non-toxic”. Besides, the Ki amounted to 4.2 µM in data set [2] and 18.2 µM in data set [3] (read-out: Ki).

`O=C(O)c1cc(Br)cc(Br)c1O`: in data set [1], the Activity result is reported as “Non-toxic”. In addition, the figures for the Ki in data set [2] and in data set [3] (read-out: Ki) were 23 µM and 45.7 µM, respectively.

With `CCc1oc2ccccc2c1C(=O)c1cc(Br)c(O)c(Br)c1` [BENZBROMARONE], half-maximal inhibition in data set [6] (IC50) was put at 0.048 µM.

In turn, `O=C1OC(c2cc(Br)c(O)c(Br)c2)(c2cc(Br)c(O)c(Br)c2)c2ccccc21` gave an IC50 in data set [6] of 0.033 µM.
